# Measured values reported in US4110165A, “Process for the production of clavulanic acid” (Beecham Group Limited, priority 1974, dated 1978).
# Where a name gives a salt, the structure may show the parent alone.
# Columns and labels:
# Klebsiella aerogenes 62 = assay: Antibacterial synergism MIC, microtiter method (Example 42); assay type: cell-based; conditions: unit not given; method of Example 42
# Klebsiella aerogenes A [1] = assay: as above; assay type: cell-based; conditions: unit not given; method of Example 42
# Proteus mirabilis C889 = assay: M.I.C. synergism with clavulanic acid methyl ester (Example 32); assay type: cell-based
# [2] = system: Staphylococcus aureus (Russell); assay: as above; assay type: cell-based
# [3] = system: Klebsiella aerogenes E 70; assay: Antibacterial synergism MIC, microtiter method (Example 42); assay type: cell-based; conditions: unit not given; method of Example 42
# Klebsiella aerogenes A [4] = assay: Growth inhibition, penicillins with and without synergist; assay type: cell-based
# Staphylococcus aureus = assay: Antibacterial synergism MIC, microtiter method (Example 42); assay type: cell-based; conditions: method of Example 42
# Staph. aureus Russell = assay: MIC, method of Example 30 with 1/100 dilution of overnight broth (Example 46); conditions: Staphylococcus aureus
# Method: (§1) The cultures were incubated overnight and the points of bacterial growth recorded next morning by observing the turbidity of the culture.
# Bacillus subtilis A = assay: as above
# Method: as §1
# Escherichia coli 10418 = assay: as above
# Method: as §1
# Staph. aureus Oxford = assay: as above; conditions: Staphylococcus aureus
# Method: as §1
# bacteria = assay: Tests for antibacterial activity in broth (Example 32); assay type: cell-based
# [5] = Blood and tissue levels in female mice; assay type: in vivo; conditions: oral administration of 100 mg/kg
# Stability in human blood = assay type: in vitro ADME
structure (smiles),measurement,setting,value
"CC1(C)S[C@@H]2[C@H](NC(=O)[C@H](N)c3ccccc3)C(=O)N2[C@H]1C(=O)O [Ampicillin, ampicillin]","M.I.C., Ampicillin + 5 μg/ml of Benzyl Ester of clavulanic acid",Klebsiella aerogenes 62,3.9
same,"M.I.C., Ampicillin + 5 μg/ml of Methyl Ester of clavulanic acid",Klebsiella aerogenes 62,3.9
same,"M.I.C., Ampicillin + 5 μg/ml of Benzyl Ester of clavulanic acid",Klebsiella aerogenes A [1],1.9
same,"M.I.C., Ampicillin + 5 μg/ml of Methyl Ester of clavulanic acid",Klebsiella aerogenes A [1],1.9
same,M.I.C. in the presence of 5 μg/ml. clavulanic acid methyl ester,Proteus mirabilis C889,31 µg/mL
same,M.I.C. in the presence of 1.0 μg/ml. clavulanic acid methyl ester,[2],< 0.4 µg/mL
same,"M.I.C., Ampicillin + 5 μg/ml of Benzyl Ester of clavulanic acid",[3],3.9
same,"M.I.C., Ampicillin + 5 μg/ml of Methyl Ester of clavulanic acid",[3],3.9
"CC1(C)S[C@@H]2[C@H](NC(=O)Cc3ccccc3)C(=O)N2[C@H]1C(=O)O [Benzylpenicillin, benzylpenicillin]",concentration inhibiting growth when 5 μg/ml. of clavulanic acid is also present,Klebsiella aerogenes A [4],less than 12.5 μg/ml.
"O=C(Cc1cccs1)N[C@@H]1C(=O)N2C(C(=O)[O-])=C(C[n+]3ccccc3)CS[C@H]12 [Cephaloridine, cephaloridine]",Minimum Inhibitory Concentration in presence of 5μg/ml clavulanic acid sodium salt,Staphylococcus aureus,3.7 µg/mL
same,M.I.C. in the presence of 1.0 μg/ml. clavulanic acid methyl ester,[2],< 0.03 µg/mL
"O=C1OC(OC(=O)[C@H]2/C(=C/CO)O[C@@H]3CC(=O)N32)c2ccccc21 (some centres unmarked) [Phthalidyl ester, Clavulanic Acid Phthalide Esters]",MIC,Staph. aureus Russell,15 µg/mL
same,MIC,Bacillus subtilis A,125 µg/mL
same,MIC,Escherichia coli 10418,125 µg/mL
same,MIC,Staph. aureus Oxford,31 µg/mL
"O=C(OCc1ccccc1)[C@H]1/C(=C/CO)O[C@@H]2CC(=O)N21 [clavulanic acid benzyl ester, benzyl ester of 3-(β-hydroxyethylidine)-7-oxo-4-oxa-1-azabicyclo [3,2,0]heptane-2-carboxylic acid]",MIC,Escherichia coli 10418,125 µg/mL
COC(=O)[C@H]1/C(=C/CO)O[C@@H]2CC(=O)N21 [clavulanic acid methyl ester],antibacterial activity in broth,bacteria,broad spectrum activity but of a lower order than shown by clavulanic acid
"O=C(O)[C@H]1/C(=C/CO)O[C@@H]2CC(=O)N21 [clavulanic acid sodium salt, 3-(β-hydroxyethylidine)-7-oxo-4-oxa-1-azabicyclo [3,2,0]heptane-2-carboxylic acid sodium salt]",levels of clavulanic acid after oral administration,[5],useful levels
same,MIC,Escherichia coli 10418,125 µg/mL
"O=C(O)[C@H]1/C(=C/CO)O[C@@H]2CC(=O)N21 [clavulanic acid, Z-(2R,5R)-3-(β-hydroxyethylidene)-7-oxo-4-oxa-1-azabicyclo[3,2,0]heptane-2-carboxylic acid]",stability in human blood,Stability in human blood,high stability
